The values that follow come from US20260193293A1, “PEPTIDES CAPABLE OF INHIBITING PROTEIN-PROTEIN INTERACTIONS AT GABAB1A SUBUNIT AND USES THEREOF” (UNIVERSITY OF COPENHAGEN, priority 2022, published 2026).

SMILES strings stand for the structures. Where two headings read alike, the source gives them in different places. Residues, ends and D or L forms follow the SMILES beside them.

In this test the target is Sushi domains (SD1/2) protein. In words: Fluorescence polarization (FP) competition assay with AJAP-1probe, calculated Ki. Type of test: binding. As to conditions: read-out: Ki (nM) mean ± SEM. The method, then: Fluorescence polarization (FP). FP assay was employed to determine the binding affinity of peptides in flat bottom black 384-well plates (Corning Life Science) using a Safire2 plate reader (Tecan). All experiments were conducted in 1×PBS (pH 7.4) containing 1% bovine serum albumin (BSA) at rt. The fluorescence polarization values were measured using excitation/emission wavelengths of 530/580 nm. The instrumental Z-factor was adjusted to obtain the maximum fluorescence intensity and the G-factor was calibrated to give an initial millipolarization value of 20 mP. All FP assays including saturation or competition experiments were performed using 25 nM of TAMRA labeled peptides as probes. For saturation assay, the millipolarization values were measured after mixing of probes with 12 serial 1 to 1 diluted concentrations of Sushi domains (SD1/2) protein. All experiments were performed in triplicate and the data were plotted to the one-site binding model using GraphPad Prism 9 to calculate the Kd of probes. […] The experiments were performed at least in triplicate and the data were fitted to the sigmoidal dose response curve using GraphPad Prism 9 to obtain the IC50 of peptides. The Ki values were calculated according to Nikolovska-Coleska et al^310.

The mark [1] stands for this setting: Table 4, truncation and elongation scans of APP epitope.
Setting [2] is: Table 3, SPOT hit validation and previously reported peptides.
Where [3] appears, read: Table 11, deep mutational scanning validation variants of AJAP-1WT.

As to `CC(=O)N[C@@H](C)C(=O)N[C@@H](CCC(=O)O)C(=O)N[C@@H](CCC(=O)O)C(=O)N[C@@H](CC(=O)O)C(=O)N[C@@H](CC(=O)O)C(=O)N[C@@H](CO)C(=O)N[C@@H](CC(=O)O)C(=O)N[C@H](C(=O)N[C@@H](Cc1c[nH]c2ccccc12)C(=O)N[C@@H](Cc1c[nH]c2ccccc12)C(=O)NCC(=O)NCC(=O)N[C@@H](C)C(=O)N[C@@H](CC(=O)O)C(=O)N[C@H](C(=O)N[C@@H](CC(=O)O)C(=O)N[C@@H](Cc1ccc(O)cc1)C(=O)N[C@@H](C)C(=O)N[C@@H](CC(=O)O)C(N)=O)[C@@H](C)O)C(C)C`, under setting [1], the Ki was 237 ± 8 nM.

Take `CC[C@H](C)[C@H](NC(=O)[C@H](Cc1ccccc1)NC(=O)[C@H](CCC(=O)O)NC(=O)[C@@H](NC(=O)[C@H](CCC(=O)O)NC(C)=O)[C@@H](C)O)C(=O)N[C@@H](C)C(=O)N[C@@H](Cc1c[nH]c2ccccc12)C(=O)NCC(=O)N1CCC[C@H]1C(=O)N[C@H](C(=O)NCC(=O)N[C@@H](CC(=O)O)C(=O)N[C@@H](CCC(=O)O)C(=O)N[C@@H](CC(=O)O)C(=O)N[C@@H](C)C(N)=O)[C@@H](C)O`: the Ki under setting [2] is 39 ± 1 nM.

In the case of `CC[C@H](C)[C@H](NC(=O)[C@H](Cc1ccccc1)NC(=O)[C@H](CCC(=O)O)NC(=O)[C@@H](NC(=O)[C@H](CCC(=O)O)NC(C)=O)[C@@H](C)O)C(=O)N[C@@H](C)C(=O)N[C@@H](Cc1c[nH]c2ccccc12)C(=O)NCC(=O)N1CCC[C@H]1C(=O)N[C@H](C(=O)NCC(=O)N[C@@H](CC(=O)O)C(=O)N[C@@H](CCC(=O)O)C(=O)N[C@@H](Cc1c[nH]cn1)C(N)=O)[C@@H](C)O`, the Ki under setting [3] is 39 ± 2 nM.

As to `CC[C@H](C)[C@H](NC(=O)[C@H](Cc1ccccc1)NC(=O)[C@H](CCC(=O)O)NC(=O)[C@@H](NC(=O)[C@H](CCC(=O)O)NC(C)=O)[C@@H](C)O)C(=O)N[C@@H](C)C(=O)N[C@@H](Cc1c[nH]c2ccccc12)C(=O)NCC(=O)N1CCC[C@H]1C(=O)N[C@H](C(=O)NCC(=O)N[C@@H](CC(=O)O)C(=O)N[C@@H](CCC(=O)O)C(=O)N[C@@H](Cc1ccc(O)cc1)C(N)=O)[C@@H](C)O`, the Ki under setting [3] is 39 ± 1 nM.

`CC[C@H](C)[C@H](NC(=O)[C@H](Cc1ccccc1)NC(=O)[C@H](CCC(=O)O)NC(=O)[C@@H](NC(=O)[C@H](CCC(=O)O)NC(C)=O)[C@@H](C)O)C(=O)N[C@@H](C)C(=O)N[C@@H](Cc1c[nH]c2ccccc12)C(=O)NCC(=O)N1CCC[C@H]1C(=O)N[C@H](C(=O)NCC(=O)N[C@@H](CC(=O)O)C(=O)N[C@@H](Cc1c[nH]cn1)C(=O)N[C@@H](CC(=O)O)C(N)=O)[C@@H](C)O`: under setting [3], the Ki is 39 ± 2 nM.

Take `CC[C@H](C)[C@H](NC(=O)[C@H](Cc1ccccc1)NC(=O)[C@H](CCC(=O)O)NC(=O)[C@@H](NC(=O)[C@H](CCC(=O)O)NC(C)=O)[C@@H](C)O)C(=O)N[C@@H](C)C(=O)N[C@@H](Cc1c[nH]c2ccccc12)C(=O)NCC(=O)N1CCC[C@H]1C(=O)N[C@H](C(=O)NCC(=O)N[C@@H](CC(=O)O)C(=O)N[C@@H](CC(N)=O)C(=O)N[C@@H](CC(=O)O)C(N)=O)[C@@H](C)O`: the Ki under setting [3] was 39 ± 1 nM.

For the compound `CC[C@H](C)[C@H](NC(=O)[C@H](Cc1ccccc1)NC(=O)[C@H](CCC(=O)O)NC(=O)[C@@H](NC(=O)[C@H](CCC(=O)O)NC(C)=O)[C@@H](C)O)C(=O)N[C@@H](C)C(=O)N[C@@H](Cc1c[nH]c2ccccc12)C(=O)NCC(=O)N1CCC[C@H]1C(=O)N[C@H](C(=O)NCC(=O)N[C@@H](CC(=O)O)C(=O)N[C@H](C(=O)N[C@@H](CC(=O)O)C(N)=O)C(C)C)[C@@H](C)O`, the Ki under setting [3] was 39 ± 1 nM.

As for `CC[C@H](C)[C@H](NC(=O)[C@H](Cc1ccccc1)NC(=O)[C@H](CCC(=O)O)NC(=O)[C@@H](NC(=O)[C@H](CCC(=O)O)NC(=O)[C@@H](NC(=O)[C@@H](NC(=O)[C@@H]1CCCN1C(=O)[C@H](CCCNC(=N)N)NC(C)=O)[C@@H](C)O)[C@@H](C)O)[C@@H](C)O)C(=O)N[C@@H](C)C(=O)N[C@@H](Cc1c[nH]c2ccccc12)C(=O)NCC(=O)N1CCC[C@H]1C(=O)N[C@H](C(=O)NCC(=O)N[C@@H](CC(=O)O)C(=O)N[C@@H](CCC(=O)O)C(=O)N[C@@H](CC(=O)O)C(N)=O)[C@@H](C)O`, under “Table 5, elongation and truncation scan of AJAP-1 binding epitope”, the Ki was 58 ± 0.4 nM.

Regarding `CC(=O)N[C@@H](C)C(=O)N[C@@H](CC(=O)O)C(=O)N[C@@H](C)C(=O)N[C@@H](CCC(=O)O)C(=O)N[C@@H](CCC(=O)O)C(=O)N[C@@H](CC(=O)O)C(=O)N[C@@H](CC(=O)O)C(=O)N[C@@H](CO)C(=O)N[C@@H](CC(=O)O)C(=O)N[C@H](C(=O)N[C@@H](Cc1c[nH]c2ccccc12)C(=O)N[C@@H](Cc1c[nH]c2ccccc12)C(=O)NCC(=O)NCC(=O)N[C@@H](C)C(N)=O)C(C)C` (Ac-ADAEEDDSDVWWGGA-NH2), the Ki under setting [2] is 1530 ± 46 nM.

In the case of `CC(=O)N[C@@H](C)C(=O)N[C@@H](CC(=O)O)C(=O)N[C@@H](C)C(=O)N[C@@H](CCC(=O)O)C(=O)N[C@@H](CCC(=O)O)C(=O)N[C@@H](CC(=O)O)C(=O)N[C@@H](CC(=O)O)C(=O)N[C@@H](CO)C(=O)N[C@@H](CC(=O)O)C(=O)N[C@H](C(=O)N[C@@H](Cc1c[nH]c2ccccc12)C(=O)N[C@@H](Cc1c[nH]c2ccccc12)C(=O)NCC(=O)NCC(=O)N[C@@H](C)C(=O)N[C@@H](CC(=O)O)C(=O)N[C@H](C(=O)N[C@@H](CC(=O)O)C(=O)N[C@@H](Cc1ccc(O)cc1)C(=O)N[C@@H](C)C(=O)N[C@@H](CC(=O)O)C(N)=O)[C@@H](C)O)C(C)C` (Ac-ADAEEDDSDVWWGGADTDYAD-NH2), the Ki under setting [1] is 500 ± 16 nM.

For `CC(=O)N[C@@H](C)C(=O)N[C@@H](CC(=O)O)C(=O)N[C@@H](CC(=O)O)C(=O)N[C@@H](CO)C(=O)N[C@@H](CC(=O)O)C(=O)N[C@H](C(=O)N[C@@H](Cc1c[nH]c2ccccc12)C(=O)N[C@@H](Cc1c[nH]c2ccccc12)C(=O)NCC(=O)NCC(=O)N[C@@H](C)C(=O)N[C@@H](CC(=O)O)C(=O)N[C@H](C(=O)N[C@@H](CC(=O)O)C(N)=O)[C@@H](C)O)C(C)C` (Ac-ADDSDVWWGGADTD-NH2), the Ki (Table 7, Ala-, D-amino acids and N-methylation scans of APPWT) was 803 ± 5 nM.

For `CC[C@H](C)[C@H](NC(=O)[C@H](C)NC(C)=O)C(=O)N[C@H](C(=O)N[C@@H](Cc1c[nH]c2ccccc12)C(=O)NCC(=O)N1CCC[C@H]1C(=O)N[C@H](C(=O)N[C@H](C(=O)N[C@@H](CO)C(=O)N[C@@H](CCCNC(=N)N)C(=O)N[C@@H](CCC(=O)O)C(=O)N[C@@H](CC(=O)O)C(=O)NCC(N)=O)C(C)C)[C@@H](C)O)C(C)C` (Ac-AIVWGPTVSREDG-NH2), the Ki (Table 6, elongation and truncation scan of PIANP binding epitope) is 5550 ± 11 nM.

With `CC[C@H](C)[C@H](NC(=O)[C@H](C)NC(C)=O)C(=O)N[C@H](C(=O)N[C@@H](Cc1c[nH]c2ccccc12)C(=O)NCC(=O)N1CCC[C@H]1C(=O)N[C@H](C(=O)N[C@H](C(=O)N[C@@H](CO)C(=O)N[C@@H](CCCNC(=N)N)C(=O)N[C@@H](CCC(=O)O)C(=O)N[C@@H](CC(=O)O)C(=O)NCC(=O)NCC(=O)N[C@@H](CC(=O)O)C(N)=O)C(C)C)[C@@H](C)O)C(C)C` (Ac-AIVWGPTVSREDGGD-NH2), the Ki under setting [2] is 637 ± 45 nM.

For `CC(=O)N[C@@H](CC(=O)O)C(=O)N[C@@H](C)C(=O)N[C@@H](CCC(=O)O)C(=O)N[C@@H](CCC(=O)O)C(=O)N[C@@H](CC(=O)O)C(=O)N[C@@H](CC(=O)O)C(=O)N[C@@H](CO)C(=O)N[C@@H](CC(=O)O)C(=O)N[C@H](C(=O)N[C@@H](Cc1c[nH]c2ccccc12)C(=O)N[C@@H](Cc1c[nH]c2ccccc12)C(=O)NCC(=O)NCC(=O)N[C@@H](C)C(=O)N[C@@H](CC(=O)O)C(=O)N[C@H](C(=O)N[C@@H](CC(=O)O)C(=O)N[C@@H](Cc1ccc(O)cc1)C(=O)N[C@@H](C)C(=O)N[C@@H](CC(=O)O)C(N)=O)[C@@H](C)O)C(C)C` (Ac-DAEEDDSDVWWGGADTDYAD-NH2), the Ki under setting [1] is 247 ± 7 nM.

Take `CC(=O)N[C@@H](CC(=O)O)C(=O)N[C@@H](CC(=O)O)C(=O)N[C@@H](CO)C(=O)N[C@@H](CC(=O)O)C(=O)N[C@H](C(=O)N[C@@H](Cc1c[nH]c2ccccc12)C(=O)N[C@@H](Cc1c[nH]c2ccccc12)C(=O)NCC(=O)NCC(N)=O)C(C)C` (Ac-DDSDVWWGG-NH2): the Ki under setting [2] was 2630 ± 97 nM.

For the compound `CC(=O)N[C@@H](CC(=O)O)C(=O)N[C@@H](CC(=O)O)C(=O)N[C@@H](CO)C(=O)N[C@@H](CC(=O)O)C(=O)N[C@H](C(=O)N[C@@H](Cc1c[nH]c2ccccc12)C(=O)N[C@@H](Cc1c[nH]c2ccccc12)C(=O)NCC(=O)NCC(=O)N[C@@H](C)C(=O)N[C@@H](CC(=O)O)C(=O)N[C@H](C(=O)N[C@@H](CC(=O)O)C(=O)N[C@@H](Cc1ccc(O)cc1)C(=O)N[C@@H](C)C(=O)N[C@@H](CC(=O)O)C(N)=O)[C@@H](C)O)C(C)C` (Ac-DDSDVWWGGADTDYAD-NH2), the Ki under setting [1] is 517 ± 16 nM.

Consider `CC(=O)N[C@@H](CC(=O)O)C(=O)N[C@@H](CC(=O)O)C(=O)N[C@@H](CO)C(=O)N[C@@H](CC(=O)O)C(=O)N[C@H](C(=O)N[C@@H](Cc1c[nH]c2ccccc12)C(=O)N[C@@H](Cc1c[nH]c2ccccc12)C(=O)NCC(=O)NCC(=O)N[C@@H](C)C(=O)N[C@@H](CC(=O)O)C(=O)N[C@H](C(=O)N[C@@H](CC(=O)O)C(=O)N[C@@H](Cc1ccc(O)cc1)C(=O)N[C@@H](C)C(=O)N[C@@H](CC(=O)O)C(=O)NCC(N)=O)[C@@H](C)O)C(C)C` (Ac-DDSDVWWGGADTDYADG-NH2), for which the Ki under setting [2] was 687 ± 17 nM.
